How the values were obtained:
[1] = Volume of distribution at steady state in Beagle dog at 3 mg/kg, iv administered as single bolus dose measured upto 24 hrs by LC-MS/MS analysis; assay type: ADME, organism-based, Canis lupus familiaris; conditions: in vivo, read-out: Vdss
[2] = molecular target: Hepatic sodium/bile acid cotransporter (Homo sapiens, UniProt Q14973); assay: Inhibition of NTCP (unknown origin) at 1 to 10 uM; conditions: dose 1-10 µM
[3] = Cmax in Beagle dog at 10 mg/kg, po administered as single dose by LC-MS/MS analysis; assay type: ADME, organism-based, Canis lupus familiaris; parameters: route oral, dose 10 mg/kg; conditions: in vivo
[4] = In-vivo inhibition of CHIT1 in C57BL/6N mouse assessed as decrease in chitinolytic activity in plasma at 30 mg/kg, po qd administered via gavage measured up to 12 hrs relative to control; assay type: functional; conditions: time hrs <=12
[5] = Elimination half-life in Beagle dog at 10 mg/kg, po administered as single dose by LC-MS/MS analysis; assay type: ADME, organism-based, Canis lupus familiaris; conditions: in vivo, read-out: beta t1/2 (converted)
[6] = Initial plasma concentration in Sprague-Dawley rat at 2 mg/kg, iv administered as single bolus dose by LC-MS/MS analysis; assay type: ADME, organism-based
[7] = molecular target: Organic anion transporter 3 (Homo sapiens, UniProt Q8TCC7); assay: Inhibition of OAT3 (unknown origin) at 1 to 10 uM; conditions: dose 1-10 µM
Chain of Organic anion transporter 3 (Q8TCC7 whole entry): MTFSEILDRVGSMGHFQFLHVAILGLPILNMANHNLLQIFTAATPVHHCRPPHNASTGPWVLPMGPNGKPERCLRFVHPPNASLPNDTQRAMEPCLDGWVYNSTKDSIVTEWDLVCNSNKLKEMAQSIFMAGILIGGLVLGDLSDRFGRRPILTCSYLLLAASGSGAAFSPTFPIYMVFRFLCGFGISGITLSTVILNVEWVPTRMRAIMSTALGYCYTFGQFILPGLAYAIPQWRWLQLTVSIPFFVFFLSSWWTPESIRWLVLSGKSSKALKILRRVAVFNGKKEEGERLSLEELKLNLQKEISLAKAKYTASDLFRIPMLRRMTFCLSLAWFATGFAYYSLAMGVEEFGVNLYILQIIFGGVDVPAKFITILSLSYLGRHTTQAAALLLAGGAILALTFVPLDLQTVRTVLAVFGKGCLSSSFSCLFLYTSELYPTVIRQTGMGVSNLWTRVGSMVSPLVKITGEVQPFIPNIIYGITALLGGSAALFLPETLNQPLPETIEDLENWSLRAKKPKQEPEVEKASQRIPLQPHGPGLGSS

[8] = Dose normalized AUC (0 to 24 hrs) in Balb/c mouse at 10 mg/kg, po administered as single dose by LC-MS/MS analysis; assay type: ADME, organism-based; conditions: in vivo
Cytochrome P450 2C9 = Cytochrome P450 2C9 (Homo sapiens, UniProt P11712); assay: Inhibition of CYP2C9 (unknown origin); assay type: ADME
Chain of Cytochrome P450 2C9 (P11712 whole entry): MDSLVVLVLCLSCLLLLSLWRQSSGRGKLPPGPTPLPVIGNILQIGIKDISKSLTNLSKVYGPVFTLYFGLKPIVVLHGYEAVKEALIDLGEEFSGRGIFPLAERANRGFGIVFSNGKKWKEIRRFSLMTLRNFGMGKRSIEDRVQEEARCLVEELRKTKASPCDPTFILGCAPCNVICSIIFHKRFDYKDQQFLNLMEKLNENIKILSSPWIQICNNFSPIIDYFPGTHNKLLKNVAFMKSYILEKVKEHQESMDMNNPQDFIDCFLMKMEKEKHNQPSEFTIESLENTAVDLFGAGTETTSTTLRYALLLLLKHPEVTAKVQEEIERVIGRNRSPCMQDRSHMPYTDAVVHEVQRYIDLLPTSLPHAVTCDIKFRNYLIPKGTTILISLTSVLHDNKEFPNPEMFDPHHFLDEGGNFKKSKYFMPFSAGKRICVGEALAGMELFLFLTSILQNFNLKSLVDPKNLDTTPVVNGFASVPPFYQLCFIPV

[9] = Elimination half-life in Beagle dog at 3 mg/kg, iv administered as single bolus dose by LC-MS/MS analysis; assay type: ADME, organism-based, Canis lupus familiaris; conditions: in vivo, read-out: beta t1/2 (converted)
[10] = Dose normalized Cmax in Beagle dog at 10 mg/kg, po administered as single dose by LC-MS/MS analysis; assay type: ADME, organism-based, Canis lupus familiaris; conditions: in vivo
[11] = AUC (0 to 24 hrs) in Beagle dog at 3 mg/kg, iv administered as single bolus dose by LC-MS/MS analysis; assay type: ADME, organism-based, Canis lupus familiaris; parameters: time < 24 hr, route intravenous, dose 3 mg/kg; conditions: in vivo
[12] = Clearance (0 to infinity) in Sprague-Dawley rat at 2 mg/kg, iv administered as single bolus dose by LC-MS/MS analysis; assay type: ADME, organism-based; conditions: in vivo
[13] = Clearance (0 to 24 hrs) in Balb/c mouse at 3 mg/kg, iv administered as single bolus dose by LC-MS/MS analysis; assay type: ADME, organism-based; conditions: in vivo
[14] = Tmax in Beagle dog at 10 mg/kg, po administered as single dose by LC-MS/MS analysis; assay type: ADME, organism-based, Canis lupus familiaris; conditions: in vivo
[15] = Dose normalized Cmax in Beagle dog at 3 mg/kg, iv administered as single bolus dose by LC-MS/MS analysis; assay type: ADME, organism-based, Canis lupus familiaris; conditions: in vivo
[16] = Drug uptake in C57BL/6N mouse lung at 30 mg/kg, po qd administered via gavage measured 24 hrs post dose; assay type: ADME, organism-based; conditions: in vivo
[17] = molecular target: ATP-binding cassette sub-family C member 3 (Homo sapiens, UniProt O15438); assay: Inhibition of MRP3 (unknown origin) at 1 to 10 uM; conditions: dose 1-10 µM
Chain of ATP-binding cassette sub-family C member 3 (O15438 whole entry): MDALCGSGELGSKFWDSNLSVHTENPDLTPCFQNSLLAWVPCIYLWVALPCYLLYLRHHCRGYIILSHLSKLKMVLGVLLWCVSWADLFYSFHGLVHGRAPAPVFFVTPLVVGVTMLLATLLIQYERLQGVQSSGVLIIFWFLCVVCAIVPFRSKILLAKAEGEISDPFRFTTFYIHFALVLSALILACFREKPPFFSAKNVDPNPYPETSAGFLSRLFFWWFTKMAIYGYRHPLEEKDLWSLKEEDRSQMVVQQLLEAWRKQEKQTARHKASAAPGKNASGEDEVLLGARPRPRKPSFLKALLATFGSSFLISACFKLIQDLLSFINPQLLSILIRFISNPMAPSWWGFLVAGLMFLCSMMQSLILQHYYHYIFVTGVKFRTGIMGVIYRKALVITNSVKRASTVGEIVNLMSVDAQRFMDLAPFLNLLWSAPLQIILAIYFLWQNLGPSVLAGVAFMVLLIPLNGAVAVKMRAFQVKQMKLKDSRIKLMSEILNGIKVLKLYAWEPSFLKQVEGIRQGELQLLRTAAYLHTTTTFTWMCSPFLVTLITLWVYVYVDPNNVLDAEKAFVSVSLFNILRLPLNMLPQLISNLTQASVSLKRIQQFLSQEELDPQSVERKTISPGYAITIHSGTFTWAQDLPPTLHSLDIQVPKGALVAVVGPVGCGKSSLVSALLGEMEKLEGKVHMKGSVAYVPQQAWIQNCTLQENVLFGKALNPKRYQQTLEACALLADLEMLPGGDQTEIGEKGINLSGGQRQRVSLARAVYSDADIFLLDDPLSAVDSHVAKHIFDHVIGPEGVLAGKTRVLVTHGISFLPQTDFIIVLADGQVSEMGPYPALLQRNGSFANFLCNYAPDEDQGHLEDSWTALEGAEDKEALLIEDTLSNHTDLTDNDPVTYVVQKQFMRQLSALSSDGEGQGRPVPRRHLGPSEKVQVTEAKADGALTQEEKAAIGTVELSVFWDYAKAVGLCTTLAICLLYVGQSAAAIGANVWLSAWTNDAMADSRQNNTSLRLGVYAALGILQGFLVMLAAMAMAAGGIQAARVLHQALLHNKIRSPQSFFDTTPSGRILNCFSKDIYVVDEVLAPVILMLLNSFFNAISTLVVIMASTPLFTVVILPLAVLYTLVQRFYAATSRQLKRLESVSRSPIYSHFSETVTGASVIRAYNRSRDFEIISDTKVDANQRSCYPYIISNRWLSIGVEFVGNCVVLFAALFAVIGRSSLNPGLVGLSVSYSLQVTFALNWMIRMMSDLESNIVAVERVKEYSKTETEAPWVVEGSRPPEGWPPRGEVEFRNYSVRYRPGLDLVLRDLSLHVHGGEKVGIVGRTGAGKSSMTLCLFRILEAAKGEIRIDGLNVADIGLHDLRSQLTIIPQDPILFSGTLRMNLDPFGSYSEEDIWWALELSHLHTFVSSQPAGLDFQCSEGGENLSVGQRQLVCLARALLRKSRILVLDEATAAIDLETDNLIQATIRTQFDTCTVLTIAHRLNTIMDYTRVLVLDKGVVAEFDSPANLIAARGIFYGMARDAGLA

[18] = Dose normalized AUC (0 to 24 hrs) in Sprague-Dawley rat at 6 mg/kg, po administered as single dose by LC-MS/MS analysis; assay type: ADME, organism-based; conditions: in vivo
[19] = Dose normalized AUC (0 to 24 hrs) in Sprague-Dawley rat at 2 mg/kg, iv administered as single bolus dose by LC-MS/MS analysis; assay type: ADME, organism-based; conditions: in vivo
[20] = Elimination half-life in Balb/c mouse at 3 mg/kg, iv administered as single bolus dose by LC-MS/MS analysis; assay type: ADME, organism-based; conditions: in vivo, read-out: beta t1/2 (converted)
[21] = Cmax in Balb/c mouse at 10 mg/kg, po administered as single dose by LC-MS/MS analysis; assay type: ADME, organism-based; parameters: route oral, dose 10 mg/kg; conditions: in vivo
[22] = Oral bioavailability in Balb/c mouse at 10 mg/kg, administered as single dose by LC-MS/MS analysis; assay type: ADME, organism-based; conditions: in vivo
[23] = AUC (0 to 24 hrs) in Balb/c mouse at 10 mg/kg, po administered as single dose by LC-MS/MS analysis; assay type: ADME, organism-based; parameters: time < 24 hr, route oral, dose 10 mg/kg; conditions: in vivo
[24] = molecular target: Solute carrier family 22 member 1 (Homo sapiens, UniProt O15245); assay: Inhibition of OCT1 (unknown origin) at 1 to 10 uM; conditions: dose 1-10 µM
Chain of Solute carrier family 22 member 1 (O15245 whole entry): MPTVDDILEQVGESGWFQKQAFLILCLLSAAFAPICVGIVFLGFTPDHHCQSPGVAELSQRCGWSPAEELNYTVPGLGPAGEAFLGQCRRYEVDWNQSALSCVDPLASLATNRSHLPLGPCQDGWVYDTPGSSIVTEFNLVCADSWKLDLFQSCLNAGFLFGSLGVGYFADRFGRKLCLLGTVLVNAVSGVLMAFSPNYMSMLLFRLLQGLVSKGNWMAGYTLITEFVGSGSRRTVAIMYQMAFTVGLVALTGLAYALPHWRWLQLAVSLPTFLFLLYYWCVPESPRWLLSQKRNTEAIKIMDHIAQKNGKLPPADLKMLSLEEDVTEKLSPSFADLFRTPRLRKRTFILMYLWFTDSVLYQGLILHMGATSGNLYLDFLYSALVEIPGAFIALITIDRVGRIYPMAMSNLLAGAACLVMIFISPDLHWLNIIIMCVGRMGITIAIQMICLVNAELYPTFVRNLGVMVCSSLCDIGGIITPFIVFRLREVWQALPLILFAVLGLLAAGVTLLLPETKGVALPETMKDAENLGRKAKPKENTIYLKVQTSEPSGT

[25] = Tmax in Balb/c mouse at 10 mg/kg, po administered as single dose by LC-MS/MS analysis; assay type: ADME, organism-based; conditions: in vivo
[26] = Tmax in Sprague-Dawley rat at 6 mg/kg, po administered as single dose by LC-MS/MS analysis; assay type: ADME, organism-based; conditions: in vivo
[27] = molecular target: Voltage-gated inwardly rectifying potassium channel KCNH2 (Homo sapiens, UniProt Q12809); assay: Inhibition of tracer red binding to human ERG expressed in HEK293 cell membranes measured after 2 to 6 hrs by fluorescence polarization assay
Chain of Voltage-gated inwardly rectifying potassium channel KCNH2 (Q12809 whole entry): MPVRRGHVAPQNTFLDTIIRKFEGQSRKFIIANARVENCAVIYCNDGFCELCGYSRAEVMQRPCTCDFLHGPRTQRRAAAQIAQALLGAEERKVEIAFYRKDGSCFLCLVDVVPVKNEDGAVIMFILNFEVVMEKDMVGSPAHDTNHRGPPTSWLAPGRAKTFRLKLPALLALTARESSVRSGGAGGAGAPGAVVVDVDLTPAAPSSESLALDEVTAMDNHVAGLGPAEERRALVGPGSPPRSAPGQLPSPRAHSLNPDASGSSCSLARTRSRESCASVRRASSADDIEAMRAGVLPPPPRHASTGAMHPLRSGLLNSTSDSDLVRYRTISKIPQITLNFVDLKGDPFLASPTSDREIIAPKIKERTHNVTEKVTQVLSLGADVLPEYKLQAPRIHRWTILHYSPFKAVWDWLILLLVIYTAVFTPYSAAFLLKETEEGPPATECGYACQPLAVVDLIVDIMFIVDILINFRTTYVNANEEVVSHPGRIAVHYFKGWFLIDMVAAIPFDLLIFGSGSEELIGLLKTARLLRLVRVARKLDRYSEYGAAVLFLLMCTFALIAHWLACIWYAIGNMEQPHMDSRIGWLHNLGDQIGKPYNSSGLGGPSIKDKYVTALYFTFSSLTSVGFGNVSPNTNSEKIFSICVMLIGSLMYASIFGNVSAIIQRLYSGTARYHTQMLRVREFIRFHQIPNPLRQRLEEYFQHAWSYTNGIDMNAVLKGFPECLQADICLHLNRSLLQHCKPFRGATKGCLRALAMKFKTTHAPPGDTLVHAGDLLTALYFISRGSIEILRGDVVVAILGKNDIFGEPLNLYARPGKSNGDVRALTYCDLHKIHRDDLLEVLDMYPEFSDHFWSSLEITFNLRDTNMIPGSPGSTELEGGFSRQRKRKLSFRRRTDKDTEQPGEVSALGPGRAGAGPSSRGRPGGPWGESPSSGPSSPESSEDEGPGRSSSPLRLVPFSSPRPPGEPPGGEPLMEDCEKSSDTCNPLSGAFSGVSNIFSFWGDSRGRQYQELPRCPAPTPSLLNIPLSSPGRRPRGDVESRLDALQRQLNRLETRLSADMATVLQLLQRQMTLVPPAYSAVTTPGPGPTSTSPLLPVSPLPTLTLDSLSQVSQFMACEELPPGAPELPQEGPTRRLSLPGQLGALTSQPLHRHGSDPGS

[28] = Drug uptake in C57BL/6N mouse lung at 30 mg/kg, po bid administered via gavage measured 24 hrs post dose; assay type: ADME, organism-based; conditions: in vivo

Chain of Hepatic sodium/bile acid cotransporter (Q14973 whole entry): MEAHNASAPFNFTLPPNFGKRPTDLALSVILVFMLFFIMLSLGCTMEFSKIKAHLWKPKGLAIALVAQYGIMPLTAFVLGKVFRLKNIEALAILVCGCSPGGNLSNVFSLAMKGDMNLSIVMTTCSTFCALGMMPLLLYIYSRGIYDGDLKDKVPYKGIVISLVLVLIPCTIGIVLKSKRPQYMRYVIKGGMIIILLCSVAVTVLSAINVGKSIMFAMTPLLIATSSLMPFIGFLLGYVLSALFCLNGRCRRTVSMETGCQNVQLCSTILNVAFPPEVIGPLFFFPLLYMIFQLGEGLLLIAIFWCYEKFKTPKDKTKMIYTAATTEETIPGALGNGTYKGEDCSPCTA

In the case of `C[C@H]1CN(C2CCN(c3nc(N)n[nH]3)CC2)[C@@H](Cc2ccc(Cl)cc2)CO1` [5-(4-((2S,5S)-5-(4-CHLOROBENZYL)-2-METHYLMORPHOLINO)PIPERIDIN-1-YL)-1H-1,2,4-TRIAZOL-3-AMINE], the Vd [1] is reported as 0.96 L/kg, the “inhibition (INH)” value [2] is reported as “Not Active” and the Cmax [3] is reported as 7640 ng/mL. The inhibition in vivo at 30 mg/kg [4] was 70%, the half-life [5] was 22.9 h and the C0 [6] was 1000 ng/mL. The “inhibition (INH)” value [7] was “Not Active”, the AUC/dose [8] was 2.22 kg·mg·h/L/mg and the “inhibition (INH)” value (Cytochrome P450 2C9) was “Not Active”. It also gave a half-life [9] of 21.9 h, a Cmax/dose [10] of 0.76 kg.mg/L.mL and an AUC(0-t) at 24 h [11] of 31000 ng·h/mL. For the same compound, the clearance [12] was 5.67 mL/min/kg, the clearance [13] was 5.83 mL/min/kg and the Tmax [14] was 0.5 h. The Cmax/dose [15] was 0.82 kg.mg/L.mL, the Drug uptake [16] was “Active” and the “inhibition (INH)” value [17] was “Not Active”. The AUC/dose [18] was 3.38 kg·mg·h/L/mg, the AUC/dose [19] was 2.78 kg·mg·h/L/mg and the half-life [20] was 2.09 h. It also gave a Cmax [21] of 3420 ng/mL, a bioavailability [22] of 77.4% and an AUC(0-t) at 24 h [23] of 22200 ng·h/mL. The “inhibition (INH)” value [24] was “Not Active”, the Tmax [25] was 2 h and the Tmax [26] was 2 h. For the same compound, the IC50 [27] was 23 µM and the Drug uptake [28] was “Active”.

From ChEMBL document CHEMBL4699582, “Discovery of OATD-01, a First-in-Class Chitinase Inhibitor as Potential New Therapeutics for Idiopathic Pulmonary Fibrosis” (J Med Chem, 2020)
